Assays:
[1] = target: T1, Free fatty acid receptor 1 (Homo sapiens, UniProt O14842); assay: Agonist activity at recombinant human GPR40 expressed in HEK293 cells assessed as increase in IP1 accumulation measured after 60 mins by HTRF assay; assay type: functional, cell-based
[2] = target: T1, Free fatty acid receptor 1; assay: Agonist activity at recombinant human GPR40 expressed in HEK293 cells assessed as increase in IP1 accumulation measured after 60 mins in presence of 100% human serum by HTRF assay; assay type: functional, cell-based
Rattus norvegicus [3] = assay: Antidiabetic activity in Sprague-Dawley rat assessed as inhibition of blood glucose AUC at 3 mg/kg, po treated prior to dextrose challenge and measured after 20 to 60 mins by IPGTT relative to control; assay type: functional
[4] = target: Free fatty acid receptor 1 (Rattus norvegicus, UniProt Q8K3T4); assay: Agonist activity at recombinant rat GPR40 expressed in CHOK1 cells assessed as increase in IP1 accumulation measured after 60 mins by HTRF assay; assay type: functional, cell-based
Chain of Free fatty acid receptor 1 (Rattus norvegicus, UniProt Q8K3T4) (Q8K3T4 whole entry): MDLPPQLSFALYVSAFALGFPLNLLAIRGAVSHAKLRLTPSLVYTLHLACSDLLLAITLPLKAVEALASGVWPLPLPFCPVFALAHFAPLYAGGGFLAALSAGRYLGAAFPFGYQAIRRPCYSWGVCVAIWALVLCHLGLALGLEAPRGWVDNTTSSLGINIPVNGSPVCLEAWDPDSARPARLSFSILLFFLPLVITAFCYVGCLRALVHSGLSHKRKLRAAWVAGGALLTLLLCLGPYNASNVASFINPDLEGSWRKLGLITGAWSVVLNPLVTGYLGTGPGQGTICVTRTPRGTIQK

Rattus norvegicus [5] = assay: Antidiabetic activity in po dosed Goto Kakizaki rats assessed as reduction in blood glucose excursion pretreated for 1 hr followed by dextrose challenge measured after 20 to 60 mins by OGTT method; assay type: functional; conditions: read-out: MED
[6] = Fraction unbound in Wistar-Han rat plasma at 1 mg/kg, iv or 2 mg/kg, po administered as single dose; assay type: ADME, organism-based
[7] = Clearance in Wistar-Han rat at 1 mg/kg, iv or 2 mg/kg, po administered as single dose; assay type: ADME, organism-based; conditions: in vivo
[8] = Volume of distribution at steady state in Wistar-Han rat at 1 mg/kg, iv or 2 mg/kg, po administered as single dose; assay type: ADME, organism-based; conditions: in vivo, read-out: Vdss
[9] = Effective half life in Wistar-Han rat at 1 mg/kg, iv or 2 mg/kg, po administered as single dose; assay type: ADME, organism-based; conditions: in vivo, read-out: t1/2eff (converted)
[10] = Oral bioavailability in Wistar-Han rat at 2 mg/kg administered as single dose; assay type: ADME, organism-based; conditions: in vivo
Bile salt export pump = Bile salt export pump (Homo sapiens, UniProt O95342); assay: Inhibition of human BSEP expressed in baculovirus infected Sf9 insect cell membrane vesicles assessed as reduction in ATP-dependent [3H]-taurocholic acid uptake; assay type: ADME
Chain of Bile salt export pump (O95342 whole entry): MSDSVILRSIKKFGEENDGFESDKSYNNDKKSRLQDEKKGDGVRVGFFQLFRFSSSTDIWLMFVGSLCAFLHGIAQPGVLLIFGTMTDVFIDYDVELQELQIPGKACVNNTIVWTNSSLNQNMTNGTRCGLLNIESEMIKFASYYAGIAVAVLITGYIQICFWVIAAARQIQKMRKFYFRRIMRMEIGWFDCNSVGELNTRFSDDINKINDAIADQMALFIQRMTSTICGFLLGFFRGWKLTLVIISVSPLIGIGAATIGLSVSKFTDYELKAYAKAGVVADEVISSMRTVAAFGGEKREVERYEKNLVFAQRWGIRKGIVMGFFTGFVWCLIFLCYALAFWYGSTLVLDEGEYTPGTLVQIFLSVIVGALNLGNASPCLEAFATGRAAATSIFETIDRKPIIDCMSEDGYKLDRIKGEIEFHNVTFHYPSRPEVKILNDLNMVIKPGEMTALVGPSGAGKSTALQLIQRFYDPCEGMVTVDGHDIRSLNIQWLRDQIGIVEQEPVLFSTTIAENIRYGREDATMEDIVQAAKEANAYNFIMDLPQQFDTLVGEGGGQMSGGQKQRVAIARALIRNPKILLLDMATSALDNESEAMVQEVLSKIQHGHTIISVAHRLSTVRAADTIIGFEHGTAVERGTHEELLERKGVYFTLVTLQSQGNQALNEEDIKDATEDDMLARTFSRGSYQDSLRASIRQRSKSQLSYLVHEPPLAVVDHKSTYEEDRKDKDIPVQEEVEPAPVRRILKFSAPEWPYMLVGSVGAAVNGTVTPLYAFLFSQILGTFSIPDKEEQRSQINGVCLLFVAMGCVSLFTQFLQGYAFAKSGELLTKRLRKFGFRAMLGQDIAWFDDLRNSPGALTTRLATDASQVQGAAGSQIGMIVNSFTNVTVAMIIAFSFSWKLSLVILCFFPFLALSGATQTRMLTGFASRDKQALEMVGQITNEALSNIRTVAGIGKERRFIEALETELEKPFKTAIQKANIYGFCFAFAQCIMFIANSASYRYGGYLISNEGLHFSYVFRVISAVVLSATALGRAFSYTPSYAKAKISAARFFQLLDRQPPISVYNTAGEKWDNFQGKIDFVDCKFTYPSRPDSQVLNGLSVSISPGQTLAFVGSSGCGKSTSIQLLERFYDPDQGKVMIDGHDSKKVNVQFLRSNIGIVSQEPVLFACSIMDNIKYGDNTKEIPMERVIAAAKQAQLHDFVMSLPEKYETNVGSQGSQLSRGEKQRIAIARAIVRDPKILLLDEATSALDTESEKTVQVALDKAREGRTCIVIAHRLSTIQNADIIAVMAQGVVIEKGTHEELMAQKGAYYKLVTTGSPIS

[11] = Lipophilicity, log D of the compound at pH 7 at 100 uM by HPLC method; assay type: physicochemical; conditions: buffer
[12] = target: T2, Free fatty acid receptor 4 (Homo sapiens, UniProt Q5NUL3); assay: Agonist activity at GPR120 (unknown origin); assay type: functional
T2 sequence (Q5NUL3 whole entry): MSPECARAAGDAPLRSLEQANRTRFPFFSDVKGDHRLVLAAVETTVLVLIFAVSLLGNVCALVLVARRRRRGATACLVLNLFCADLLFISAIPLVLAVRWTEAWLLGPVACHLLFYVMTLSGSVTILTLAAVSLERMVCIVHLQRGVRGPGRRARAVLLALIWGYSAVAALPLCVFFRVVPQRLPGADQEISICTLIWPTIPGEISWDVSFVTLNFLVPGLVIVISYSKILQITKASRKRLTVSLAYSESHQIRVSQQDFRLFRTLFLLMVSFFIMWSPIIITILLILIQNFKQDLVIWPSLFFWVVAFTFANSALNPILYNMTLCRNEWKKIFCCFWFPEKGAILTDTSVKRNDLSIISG

[13] = target: T1, Free fatty acid receptor 1; assay: Agonist activity at recombinant human GPR40 expressed in HEK293 cells assessed as increase in IP1 accumulation measured after 60 mins by HTRF assay relative to AM-1638; assay type: functional, cell-based
[14] = target: T1, Free fatty acid receptor 1; assay: Agonist activity at recombinant human GPR40 expressed in HEK293 cells assessed as increase in IP1 accumulation measured after 60 mins in presence of 100% human serum by HTRF assay relative to AM-1638; assay type: functional, cell-based
[15] = target: Free fatty acid receptor 1 (Rattus norvegicus) (UniProt Q8K3T4); assay: Agonist activity at recombinant rat GPR40 expressed in CHOK1 cells assessed as increase in IP1 accumulation measured after 60 mins by HTRF assay relative to AM-1638; assay type: functional, cell-based
Chain of Free fatty acid receptor 1 (Rattus norvegicus) (Q8K3T4 whole entry): as the sequence (Q8K3T4 whole entry) above

Rattus norvegicus [16] = assay: Antidiabetic activity in po dosed Goto Kakizaki rats assessed as plasma concentration required for reduction in blood glucose excursion at MED pretreated for 1 hr followed by dextrose challenge measured 3 hrs post dose by OGTT; assay type: functional, organism-based
Rattus norvegicus [17] = assay: Antidiabetic activity in Goto Kakizaki rats assessed as inhibition of blood glucose AUC at 0.3 mg/kg, po pretreated for 1 hr followed by dextrose challenge measured after 20 to 60 mins by OGTT method relative to control; assay type: functional
Rattus norvegicus [18] = assay: Antidiabetic activity in Goto Kakizaki rats assessed as inhibition of blood glucose AUC at 1 mg/kg, po pretreated for 1 hr followed by dextrose challenge measured after 20 to 60 mins by OGTT method relative to control; assay type: functional
Rattus norvegicus [19] = assay: Antidiabetic activity in Goto Kakizaki rats assessed as inhibition of blood glucose AUC at 3 mg/kg, po pretreated for 1 hr followed by dextrose challenge measured after 20 to 60 mins by OGTT method relative to control; assay type: functional
Rattus norvegicus [20] = assay: Antidiabetic activity in Goto Kakizaki rats assessed as inhibition of blood glucose AUC at 10 mg/kg, po pretreated for 1 hr followed by dextrose challenge measured after 20 to 60 mins by OGTT method relative to control; assay type: functional
Rattus norvegicus [21] = assay: Antidiabetic activity in Goto Kakizaki rats assessed as inhibition of blood glucose AUC at 30 mg/kg, po pretreated for 1 hr followed by dextrose challenge measured after 20 to 60 mins by OGTT method relative to control; assay type: functional
Rattus norvegicus [22] = assay: Antidiabetic activity in Goto Kakizaki rats assessed as plasma concentration required for reduction in blood glucose excursion at 0.3 mg/kg, po pretreated for 1 hr followed by dextrose challenge measured 3 hrs post dose by OGTT; assay type: functional, organism-based
Rattus norvegicus [23] = assay: Antidiabetic activity in Goto Kakizaki rats assessed as plasma concentration required for reduction in blood glucose excursion at 1 mg/kg, po pretreated for 1 hr followed by dextrose challenge measured 3 hrs post dose by OGTT; assay type: functional, organism-based
Rattus norvegicus [24] = assay: Antidiabetic activity in Goto Kakizaki rats assessed as plasma concentration required for reduction in blood glucose excursion at 3 mg/kg, po pretreated for 1 hr followed by dextrose challenge measured 3 hrs post dose by OGTT; assay type: functional, organism-based
Rattus norvegicus [25] = assay: Antidiabetic activity in Goto Kakizaki rats assessed as plasma concentration required for reduction in blood glucose excursion at 10 mg/kg, po pretreated for 1 hr followed by dextrose challenge measured 3 hrs post dose by OGTT; assay type: functional, organism-based
Rattus norvegicus [26] = assay: Antidiabetic activity in Goto Kakizaki rats assessed as plasma concentration required for reduction in blood glucose excursion at 30 mg/kg, po pretreated for 1 hr followed by dextrose challenge measured 3 hrs post dose by OGTT; assay type: functional, organism-based

T1 sequence (O14842 whole entry): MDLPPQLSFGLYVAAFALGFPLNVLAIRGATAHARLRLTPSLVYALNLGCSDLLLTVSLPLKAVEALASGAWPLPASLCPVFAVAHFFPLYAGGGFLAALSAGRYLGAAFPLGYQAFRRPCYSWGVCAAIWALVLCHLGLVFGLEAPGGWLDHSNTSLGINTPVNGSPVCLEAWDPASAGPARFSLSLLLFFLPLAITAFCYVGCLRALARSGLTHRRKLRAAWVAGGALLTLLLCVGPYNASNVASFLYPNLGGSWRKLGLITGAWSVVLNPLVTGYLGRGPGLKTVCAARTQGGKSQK

Row | SMILES | EC50 [1] [nM] | EC50 [2] [nM] | inhibition (INH) (Rattus norvegicus [3]) [%] | EC50 [4] [nM] | minimal effective dose (Rattus norvegicus [5]) [mg/kg] | fraction unbound [6] | IC50 (Bile salt export pump) [nM] | logD at 100 µM [11] | EC50 [12] [nM] | max activation [13] [%] | max activation [14] [%] | max activation [15] [%] | Cp (Rattus norvegicus [16]) [µM] | other results
1 | COc1ccc(F)c(-c2ccc(C3CCc4ccc([C@H](C5CC5)[C@H](C)C(=O)[O-])cc4O3)cc2)c1.[Na+] (stereo in doubt; 14) | 1.1 | 146 | 103 | 1.2 | 10 | 0.005 | 1400 | 2.94 | > 10000 | – | – | – | – | clearance [7]: 3.1 mL/min/kg; Vd [8]: 0.41 L/kg; half-life [9]: 3.5 h; bioavailability [10]: 50%
2 | COc1ccc(F)c(-c2ccc(C3CCc4ccc([C@H](C5CC5)[C@H](C)C(=O)O)cc4O3)cc2)c1 (stereo in doubt; 14) | – | – | – | – | – | – | – | – | – | > 179 | > 179 | > 370 | 3 | –
3 | COc1ccc(F)c(-c2ccc(C3CCc4ccc([C@H](C5CC5)[C@H](C)C(=O)[O-])cc4O3)nc2)c1.[Na+] (stereo in doubt; 16) | – | – | 99 | 2.3 | 30 | 0.003 | 300 | 2.25 | > 10000 | – | – | – | – | –
4 | COc1ccc(F)c(-c2ccc(C3CCc4ccc([C@H](C5CC5)[C@H](C)C(=O)O)cc4O3)nc2)c1 (stereo in doubt; 16) | – | – | – | – | – | – | – | – | – | > 179 | > 179 | > 370 | 13.9 | –
5 | COc1cc(-c2ccc(C3CCc4ccc([C@H](C5CC5)[C@H](C)C(=O)[O-])cc4O3)cc2)c(F)cn1.[Na+] (stereo in doubt; 20) | 0.9 | 66 | 59 | – | – | – | – | 2.68 | – | – | – | – | – | –
6 | COc1cc(-c2ccc(C3CCc4ccc([C@H](C5CC5)[C@H](C)C(=O)[O-])cc4O3)cc2)ccn1.[Na+] (stereo in doubt; 22) | – | 382 | 49 | – | – | – | – | 2.3 | – | – | – | – | – | –
7 | COc1cc(-c2ccc(C3CCc4ccc([C@H](C5CC5)[C@H](C)C(=O)[O-])cc4O3)c(F)c2)c(F)cn1.[Na+] (stereo in doubt; 26) | < 0.2 | 36 | 72 | – | – | – | – | 2.97 | – | – | – | – | – | –
8 | COc1cc(-c2ccc(C3CCc4ccc([C@H](C5CC5)[C@H](C)C(=O)[O-])cc4O3)nc2)c(F)cn1.[Na+] (stereo in doubt; 28) | < 0.2 | 1030 | 102 | – | – | – | – | 1.98 | – | – | – | – | – | –
9 | COc1cc(-c2ccc(C3CCc4ccc([C@H](C5CC5)[C@H](C)C(=O)[O-])cc4O3)nc2)c(F)cn1.[Na+] (stereo in doubt; 29) | 2.7 | 243 | – | 5.2 | 30 | 0.001 | 3200 | – | > 10000 | – | – | – | – | inhibition in vivo at 0.3 mg/kg (Rattus norvegicus [17]): 35%; inhibition in vivo at 3 mg/kg (Rattus norvegicus [3]; Rattus norvegicus, Sprague-Dawley, po): 108%; clearance [7]: 1.2 mL/min/kg; Vd [8]: 0.41 L/kg; half-life [9]: 6.4 h; bioavailability [10]: 100%; inhibition in vivo at 1 mg/kg (Rattus norvegicus [18]): 69%; inhibition in vivo at 3 mg/kg (Rattus norvegicus [19]): 96%; inhibition in vivo at 10 mg/kg (Rattus norvegicus [20]): 111%; inhibition in vivo at 30 mg/kg (Rattus norvegicus [21]): 121%
10 | COc1cc(-c2ccc(C3CCc4ccc([C@H](C5CC5)[C@H](C)C(=O)O)cc4O3)nc2)c(F)cn1 (stereo in doubt; 29) | – | – | – | – | – | – | – | – | – | > 179 | > 179 | > 370 | 32 | Cp (Rattus norvegicus [22]): 0.44 µM; Cp (Rattus norvegicus [23]): 2 µM; Cp (Rattus norvegicus [24]): 5.4 µM; Cp (Rattus norvegicus [25]): 11 µM; Cp (Rattus norvegicus [26]): 32 µM
